Patent publication US11155552B2, “Rutaecarpine analogs and applications thereof” (TAIPEI MEDICAL UNIVERSITY, priority 2018, dated 2021)

Experiments:
[1] = test system: RAW264.7 macrophages; experiment: NO production (nitrite, Griess reagent) by LPS-treated RAW264.7 macrophages; format: cell-based; details: LPS 40 ng/mL co-treatment 24 h; 0-20 μM; FIG. 1(a)
Procedure: The RAW264.7 macrophage cell line and A2780 ovarian carcinoma cells were grown in Dulbecco's modified Eagle medium (DMEM) containing 10% fetal bovine serum (FBS), 100 U/mL penicillin, 100 μg/mL streptomycin, 1 mM sodium pyruvate, 4.5 g/L glucose, 4 mM 1-glutamine, and 1.5 g/L sodium bicarbonate at 37° C. in a humidified atmosphere with 5% CO2. Primary human aortic ECs (HAECs) were grown in a MesoEndo Endothelial Cell Growth Medium Kit (Cell Applications, San Diego, Calif., USA) supplemented with 10% FBS at 37° C. in a humidified atmosphere with 5% CO2.
(§1) NO production was evaluated by measuring the nitrite concentration in supernatants of cultured RAW264.7 macrophages. Cells were first seeded at a density of 2×10^5 cells/mL in 24-well plates for 24 h, followed by co-treatment with different concentrations of F-RUT with lipopolysaccharide (LPS) (40 ng/mL) for another 24 h. The amount of nitrite in cell culture supernatants was detected using the Griess reagent (1% sulfanilamide in 5% phosphoric acid and 0.1% naphthylethylenediamine dihydrochloride in water). Data are reported as the mean±standard error of the mean (SEM) values of three independent determinations.

[2] = test system: TNF-α; experiment: TNF-α release by LPS-treated RAW264.7 macrophages (mouse TNF-α Quantikine kit); format: cell-based; details: FIG. 1(b)
Procedure: FIGS. 1A thru 1C show the effects of 10-fluoro-2-methoxyrutaecarpine (F-RUT) on nitric oxide (NO) and tumor necrosis factor (TNF)-α release by lipopolysaccharide (LPS)-treated (40 ng/mL) RAW264.7 macrophages: (a) NO levels were detected in culture medium using the Griess reaction; (b) TNF-α release in cell supernatants was detected using a mouse TNF-α Quantikine kit; (c) Cell viability upon F-RUT and rutaecarpine (RUT) treatment for 24 h in an MTT assay. Values are expressed as the mean±SE. *p<0.05, **p<0.01.
as §1

[3] = test system: RAW264.7; experiment: MTT cell viability assay, RAW264.7; format: cell-based
Procedure: (§2) An MTT assay to test cell viability was performed based on the conversion of the yellow tetrazolium salt to the purple formazan product. Cells (10^4 cells/well) were grown in a 96-well plate supplemented with standard culture medium. Cells were treated with RUT and F-RUT (0-20 μM) for 24 h. An MTT stock solution (5 mg of MTT/mL of phosphate-buffered saline; PBS) was added to the growing cultures for 2 h. The absorbance was measured with a spectrophotometer at 560 nm. DMSO alone was measured as a reading control. Data were reported as the mean±SEM values of five independent determinations.

[4] = test system: H460; experiment: MTT cell viability assay, H460; format: cell-based; details: H460 cells; 0-20 μM; 24 h; FIG. 1(c)
Procedure: as §2

[5] = test system: CL1-3; experiment: MTT cell viability assay, CL1-3; format: cell-based; details: CL1-3 cells; 0-20 μM; 24 h; FIG. 1(c)
Procedure: as §2

[6] = test system: iNOS; experiment: iNOS protein expression in LPS-treated RAW264.7 macrophages (Western blot); format: cell-based; details: FIG. 2(a)
Procedure: (§3) Protein samples were separated and resolved by sodium dodecylsulfate polyacrylamide gel electrophoresis (SDS-PAGE) and electrotransferred onto a polyvinylidene difluoride (PVDF) membrane. The membrane was incubated with a primary antibody at 4° C. overnight, and then incubated with a horseradish peroxidase (HRP)-conjugated secondary immunoglobulin G (IgG) antibody; immunoreactive bands were visualized with PerkinElmer enhanced chemiluminescent reagents.

[7] = test system: COX-2; experiment: COX-2 protein expression in LPS-treated RAW264.7 macrophages (Western blot); format: cell-based; details: FIG. 2(a)
Procedure: as §3

[8] = test system: NF-κB; experiment: NF-κB-dependent luciferase reporter assay in LPS-induced macrophages; format: cell-based; details: 0-2.5 μM; LPS 40 ng/mL 24 h; FIG. 2(b)
Procedure: RAW264.7 macrophages were seeded in a 96-well plate with DMEM. Then, cells were transfected with the pGL4.32 [luc2P/NF-κB-RE/Hygro] (Promega, Madison, Wis., USA) plasmid reporter gene using TurboFect Transfection Reagent (Fermentas, Glen Burnie, Md., USA). At 24 h after transfection, cells were treated with LPS (40 ng/mL) and F-RUT for 24 h in serum-free medium. Then the luciferase activity was detected by the luminescence measured in a luminescence microplate reader (Thermo Varioskan Flash, Waltham, Mass., USA) using a ONE-Glo luciferase assay kit (Promega). Luciferase activities were normalized to protein concentrations.

[9] = test system: COX-2; experiment: COX-2 enzyme activity
[10] = test system: A2780 cells; experiment: Wound-healing cell migration assay; format: cell-based; details: 0-5 μM, 0-24 h, FIG. 3(a)
Procedure: A2780 cells were cultured at a density of 2×10^5 cells/well in 6-well plates and incubated at 37° C. for 24 h. A centerline in the cells was scratched using a 200-μL pipette tip and washed with PBS. Then, new complete medium was added and treated with or without 1 and 2.5 μM of F-RUT for 24 h. At the endpoint of incubation, cells were examined and photographed with an optical microscope. The distance between the edges of the scratched area was measured and calculated to estimate the migratory ability of cells.
As illustrated in FIG. 3(a), wound-healing assays used an ovarian carcinoma A2780 cell line in the presence of F-RUT (0-5 μM) for 0-24 h. The migration rate was measured using imaging software, and Student's t-test was used for the statistical analysis.

[11] = test system: A2780 cells; experiment: Transwell Matrigel cell invasion assay; format: cell-based; details: 0-2.5 μM, 24 h, FIG. 3(b)
Procedure: A2780 cell invasion was evaluated using 24-well transwell inserts (8-μm-pore filters, Merck Millipore) individually coated with Matrigel (BD Biosciences, Bedford, Mass., USA). A2780 cells (2×10^4 cells in each well) were cultured for 24 h with serum-free minimum essential medium (MEM) and then treated with F-RUT (1.25 or 2.5 μM) for another 24 h in the upper chamber of the transwell. Medium containing 10% FBS was placed in the lower chamber. At the end of incubation, non-migrated cells were removed using a cotton swab; cells that had penetrated to the opposite surface of the filter were fixed with 4% formaldehyde and stained with 2% crystal violet. Stained cells were counted and photographed under a phase-contract optical microscope at 200× magnification. Three independent experiments were performed as described elsewhere.

[12] = test system: TRPV1; experiment: TRPV1 protein in human aortic endothelial cells (immunoblotting); format: cell-based; details: HAECs; 20 μM; 15 min; normalized with α-tubulin
Procedure: as §3
(§4) TRPV1 is reportedly present in ECs of arteries. To validate the expression of TRPV1 in the endothelium, the TRPV1 protein of human aortic ECs (HAECs) was detected using immunoblotting; the method of Western Blot Analysis has been stated in Example 4. F-RUT treatment (20 μM) for 15 min increased TRPV1 protein amounts two-fold compared to the control group after normalization with α-tubulin levels (FIG. 4). The effect of F-RUT on the phosphorylation of eNOS in HAECs is further examined because NO production is consequently regulated by the phosphorylation of eNOS.

[13] = test system: eNOS; experiment: eNOS phosphorylation in human aortic endothelial cells (immunoblotting); format: cell-based; details: HAECs; 20 μM; 15 min; normalized with total eNOS
Procedure: as §3, §4

[14] = test system: BALB/c mice; experiment: Lung inflammation in OVA/alum-challenged BALB/c mice; format: in vivo; details: alternate-day oral administration, FIG. 5(a)
Procedure: (§5) BALB/c mice (six weeks of age) were obtained from the Animal Center of the College of Medicine, National Taiwan University (Taipei, Taiwan), and sensitized with an intraperitoneal injection of 20 μg of ovalbumin (OVA) emulsified in 2 mg of aluminum hydroxide in a total volume of 200 μL phosphate-buffered saline (PBS) on day 0, and boosted with 50 μg of OVA emulsified in 4 mg of aluminum hydroxide on days 14 and 28. RUT or F-RUT was given by oral administration on days 30, 32, 34, 36, and 38. For post-challenge, all mice were treated intranasally with OVA (100 μg in a total volume of 40 μL PBS) on days 40, 41, 42, and 43. At 24 h after the last OVA challenge, mice were sacrificed, and their organs were collected. All experimental procedures were reviewed and approved by the Institutional Animal Care and Use Committee or Panel. Lung tissues were fixed in 4% paraformaldehyde (sc-281692; Santa Biotechnology) and embedded in paraffin. Tissue sections were made at a 5-μm thickness, and stained with hematoxylin and eosin (H&E) solution for examination of inflammation.

[15] = test system: KLF10 KO mice; experiment: Lung inflammation and collagen formation in OVA/alum-challenged KLF10 KO mice; format: in vivo
Procedure: as §5
KLF10 gene is regulated by transforming growth factor (TGF)-β/Smad. Deletion of Klf10 in mice is associated with significant inflammation of the lungs challenged with OVA/alum for 44 days. In another experiment, KLF-10 KO mice was used. […]

[16] = test system: KLF10 KO mice; experiment: Blood-air-barrier thickness by TEM in OVA/Alum-challenged KLF10 KO mice; format: in vivo; details: KLF-10 KO mice; oral; OVA/Alum group 586 nm, control group 348 nm; FIG. 6
Procedure: Blood-Air-Barrier (alveolar-capillary membrane), gas exchanging region of the lungs, was measured to perform the lung function. After the KLF-10 KO mice were challenged with OVA/Alum and oral administration of RUT or F-RUT, the lung was harvested to measure the thickness of blood-air-barrier by TEM. The average thickness of blood-air-barrier was significant increased in OVA/Alum group (586 nm compared to 348 nm in control group) and reversed by RUT or F-RUT (418 and 393 nm, respectively), see FIG. 6.

[17] = test system: zebrafish; experiment: LPS-induced ROS level in zebrafish; format: in vivo; details: 5 ng/ml F-RUT, LPS 10 and 20 ng/ml, FIG. 7

COc1ccc2c(=O)n3c(nc2c1)-c1[nH]c2ccc(F)cc2c1CC3 [F-RUT, 10-fluoro-2-methoxyrutaecarpine]
NO production [1]: suppressed NO production in a concentration-dependent (0-20 μM) manner
TNF-α released into the medium [2]: suppressive effect of TNF-α released into the medium
cytotoxicity ([3]; RAW264.7 cells, 0-20 μM, 24 h, FIG. 1(c)): substantially no cytotoxicity
cytotoxicity compared to RUT ([3]; compared to RUT): less cytotoxicity
cytotoxicity [4]: substantially no cytotoxicity
cytotoxicity [5]: substantially no cytotoxicity
iNOS protein expression [6]: suppressed their expressions in a concentration-dependent manner
COX-2 protein expression [7]: suppressed their expressions in a concentration-dependent manner
LPS-induced NF-κB transcriptional activity [8]: inhibited LPS-induced NF-κB transcriptional activity
COX-2 enzyme activity [9]: the enzyme activity is also inhibited
cell migration [10]: significant effects against cell migration
cell invasion [11]: invasion inhibitory activity
increase of TRPV1 protein amounts compared to the control group [12]: two-fold
increase of phosphorylation of eNOS compared to the control group [13]: 1.4 fold
OVA/alum-induced lung inflammation [14]: ameliorated the OVA/alum-induced lung inflammation
collagen formation around the bronchus ([15]; KLF10 KO mice, oral administration, 25% in OVA/Alum group, FIG. 5(c)): 18%
OVA/alum-induced lung inflammation ([15]; KLF-10 KO mice, alternate-day oral administration, FIG. 5(b)): ameliorated the OVA/alum-induced lung inflammation
average thickness of blood-air-barrier [16]: 393 nm
LPS-induced ROS level [17]: suppressed the LPS-induced ROS

O=c1c2ccccc2nc2n1CCc1c-2[nH]c2ccccc12 [RUT, Rutaecarpine]
average thickness of blood-air-barrier [16]: 418 nm
